Test results reported in PMC10794345, “Analysis of vascular disruption in zebrafish embryos as an endpoint to predict developmental toxicity” (Archives of Toxicology, 2023).

Key:
[1] = system: zebrafish embryos, transgenic line Tg(kdr:EGFP); assay: Number of ISVs by video subtraction in Tg(kdr:EGFP) zebrafish embryos; type: in vivo, zebrafish (D. rerio)
Experimental: (§1) Fertilized and normally developed embryos were selected according to Kimmel et al. ([1995]) with a dissection microscope (Olympus SZx7-ILLT) at 1 hpf. Depending on experiment, exposure was started within 2–3 h post-fertilization (16–128 cell stages) or at 24 hpf. Exposure was conducted in rectangular 96-well microplates (Clear Polystyrene, flat bottom, Uniplate, Whatman, GE Healthcare) covered by a lid with a test volume of 400 µL of exposure media. For each replicate one embryo per well and 16 wells per concentration were assessed. Experiments were performed with at least two replicates on independent days and breeding.
(§2) To determine the number of ISVs in the trunk region, high-resolution images of 96 hpf-old zebrafish embryos were recorded using a Leica DM6B-Z microscope (Leica, Wetzlar, Germany) attached to the VAST imaging system, and a camera (Leica DFC9000 sCMOS, objective: HC APO L U-V-I 20x/0.50 WATER UV). A series of 20 images with a frame rate of 20 images per second and a 2 × 2 pixel binning was recorded in autofocus mode for each embryo. For the Tg(kdr:EGFP) strain, one additional fluorescence image was obtained using a fluorescent filter set (emission wavelength 540 nm, excitation filter BP 450–490) and a camera exposure time of 129 ms and a 2. × 2 binning in autofocus mode.
A series of MATLAB scripts (Supplement File ‘Workflow 3.m’ and ‘Workflow 4.m’) was used to convert the image series into a video and to visualize the blood vessel by applying a video subtraction approach (Figure SI1). Briefly, each video frame was subtracted from the average image of the whole image sequence and converted to a binary image by applying a Gaussian blur (σ = 5) and a threshold of 0.025 to obtain optimal contrast in binary images. Subsequently, the sum of all binary images was calculated. Due to movement of the blood cells the subtraction approach removed all parts from the image which were not moving resulting in an image of the blood vessels. This binary image of the blood vessel network in the zebrafish embryo tail was then processed with the FishInspector annotation software (version 1.70). […] The number of ISVs was obtained by application of a KNIME workflow to FishInspector annotation files. Subsequently concentration–response analysis was conducted using a KNIME workflow. The coefficient of variation (CV) of controls was calculated for both the subtraction and the fluorescence-based method by dividing the standard deviation of individual embryos with the control mean: CVControl=SD/Mean.
Concentration–response curves were fitted for lethality, heart rate, morphological features as previously described (Teixidó et al. [2019], [2022]). The assessment of lethality and morphological features was based on the percentage of embryos affected. Therefore, morphological endpoints were dichotomized, i.e. feature metrics were converted to the percentage of embryos deviating from controls. An embryo was considered to deviate when it was outside 1.5-fold of the standard deviation range of the mean of the control group. The control mean was determined by pooling control embryos across all experiments (n = 160) (available at git.ufz.de). For heart rate and angiogenesis (number of ISVs) the analysis was based on normalized values, i.e. for each experiment the values of the treatment were divided by the control value. The experiments were designed to calculate effect concentrations based on modelled curve fits. […]

[2] = system: zebrafish embryos, transgenic line Tg(kdr:EGFP); assay: Number of ISVs by fluorescence imaging in Tg(kdr:EGFP) zebrafish embryos; type: in vivo, zebrafish (D. rerio); conditions: exposure 24–96 hpf, 0.31–10 µM
Experimental: as §1
as §2, with “mode. […]” for “mode.”

Q: `CN(C)c1ccc(C=C2C(=O)Nc3ccccc32)cc1` [SU4312] was tested. Which “EC10 (IC10) number of ISVs, subtraction image” value ([1]; Tg(kdr:EGFP), exposure 24–96 hpf, 0.31–10 µM) did it give?
A: 0.72 µM

Q: What about the EC50 ([1]; Tg(kdr:EGFP), exposure 24–96 hpf, 0.31–10 µM, read-out: EC50 (IC50) number of ISVs, subtraction image) of the same compound?
A: 2.98 µM

Q: And the EC50 ([1]; arterial ISVs only, subtraction method, ± 95% confidence where given, read-out: aISVs EC50)?
A: 2.58 ± 3.12 µM

Q: And the EC50 ([1]; subtraction method, ± 95% confidence where given, read-out: all ISVs EC50 (combined assessment))?
A: 2.98 µM

Q: What about the EC50 ([1]; venous ISVs only, subtraction method, ± 95% confidence where given, read-out: vISVs EC50) of the same compound?
A: 0.75 ± 0.17 µM

Q: What about the “EC10 (IC10) number of ISVs, fluorescent image” value [2] of the same compound?
A: 1.17 µM

Q: What about the EC50 ([2]; read-out: EC50 number of ISVs, fluorescent image) of the same compound?
A: > 10 µM
